Measured values: patent publication US20250034159A1, “INHIBITORS OF EPIDERMAL GROWTH FACTOR RECEPTOR” (ORIC Pharmaceuticals, Inc., priority 2021, published 2025)
pIC50: −log10 of the molar value. Read-outs that look alike come from different tables or passages of the source.

How the values were obtained:
[1] = biological target: recombinant human EGFR exon 19 deletion/C797S double mutant protein (Homo sapiens (Human), UniProt P00533, C797S/DEL746-750); assay: Biological Activity Assay C: biochemical assay against EGFR exon 19 deletion/C797S protein (EGFR d19/CS)
Sequence of recombinant human EGFR exon 19 deletion/C797S double mutant protein (P00533 other isoform, or with tags, fused parts or gaps C797S/del 1-668/del 746-750 limits assumed): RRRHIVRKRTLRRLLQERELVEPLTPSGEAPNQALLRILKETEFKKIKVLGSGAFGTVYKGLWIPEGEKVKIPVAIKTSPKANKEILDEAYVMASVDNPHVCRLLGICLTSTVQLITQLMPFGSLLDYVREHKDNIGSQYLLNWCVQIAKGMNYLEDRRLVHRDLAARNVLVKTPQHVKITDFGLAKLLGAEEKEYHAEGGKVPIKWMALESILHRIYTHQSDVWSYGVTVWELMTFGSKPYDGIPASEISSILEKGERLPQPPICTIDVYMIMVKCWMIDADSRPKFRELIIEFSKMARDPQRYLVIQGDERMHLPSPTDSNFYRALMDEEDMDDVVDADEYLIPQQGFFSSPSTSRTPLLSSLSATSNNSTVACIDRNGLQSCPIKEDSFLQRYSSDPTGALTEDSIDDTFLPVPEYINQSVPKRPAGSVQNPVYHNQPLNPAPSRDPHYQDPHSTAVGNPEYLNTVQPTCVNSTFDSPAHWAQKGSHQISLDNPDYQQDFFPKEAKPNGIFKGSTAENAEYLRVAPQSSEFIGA
How it was run: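 Compounds were tested as 16-point serial dilutions (final DMSO 2.5%) with a Phosphosens peptide sensor/ATP working solution (40 uM/4 mM). The signal was read kinetically over 90 cycles at 120 s intervals. IC50s came from 4-parameter fits of per-well slopes.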

Ba/F3_EGFR WT cells = assay: Biological Activity Assay D: BaF3 cell proliferation assay, EGFR wild-type (BaF3 WT); assay type: cell-based; settings: Ba/F3 EGFR, read-out: BaF3 WT IC50
BaF3_EGFR LR/CS cells = assay: Biological Activity Assay D: BaF3 cell proliferation assay, EGFR L858R/C797S mutant (BaF3 LR/CS); assay type: cell-based; settings: Ba/F3 EGFR, read-out: BaF3 LR/CS IC50
BaF3_EGFR d19/CS cells = assay: Biological Activity Assay D: BaF3 cell proliferation assay, EGFR exon 19 deletion/C797S (BaF3 d19/CS); assay type: cell-based; settings: Ba/F3 EGFR, read-out: BaF3 d19/CS IC50
[2] = Ba/F3_EGFR WT cells, ~72 hours, CellTiter-Glo
[3] = BaF3_EGFR LR/CS cells, ~72 hours, CellTiter-Glo
[4] = BaF3_EGFR d19/CS cells, ~72 hours, CellTiter-Glo

SMILES	pIC50 [1]	pIC50 (Ba/F3_EGFR WT cells; [2])	pIC50 (BaF3_EGFR LR/CS cells; [3])	pIC50 (BaF3_EGFR d19/CS cells; [4])	pIC50 (Ba/F3_EGFR WT cells; 72 h)	pIC50 (BaF3_EGFR LR/CS cells; 72 h)	pIC50 (BaF3_EGFR d19/CS cells; 72 h)
CC(C)(O)Cn1cc(-c2ncnc3oc(-c4cccnc4)cc23)c(-c2ccc(F)cc2)n1 [Example 255, 1-{3-(4-fluorophenyl)-4-[6-(pyridin-3-yl)furo[2,3-d]pyrimidin-4-yl]-1H-pyrazol-1-yl}-2-methylpropan-2-ol]	9.33	5.77	7.29	7.49	–	–	–
N#CCCn1cc(-c2ncnc3oc(-c4ccccn4)cc23)c(-c2ccc(F)cc2)n1 [Example 269, 3-{3-(4-fluorophenyl)-4-[6-(pyridin-2-yl)furo[2,3-d]pyrimidin-4-yl]-1H-pyrazol-1-yl}propanenitrile]	10.09	6.41	8.06	8.11	–	–	–
Fc1ccc(-c2nn(CCOC(F)F)cc2-c2ncnc3oc(-c4ccccc4)cc23)cc1 [Example 231, 4-{1-[2-(difluoromethoxy)ethyl]-3-(4-fluorophenyl)-1H-pyrazol-4-yl}-6-phenylfuro[2,3-d]pyrimidine]	9.34	6.18	7.75	7.45	–	–	–
Fc1ccc(-c2nn(CC3CC(F)(F)C3)cc2-c2ncnc3oc(-c4ccccc4)cc23)cc1 [Example 123, 4-{1-[(3,3-difluorocyclobutyl)methyl]-3-(4-fluorophenyl)-1H-pyrazol-4-yl}-6-phenylfuro[2,3-d]pyrimidine]	8.54	5.41	7.02	6.59	–	–	–
Cc1nn(C)cc1-c1cc2c(-c3cn(CC(C)(C)O)nc3-c3ccc(F)cc3)ncnc2o1 [Example 251, 1-{4-[6-(1,3-dimethyl-1H-pyrazol-4-yl)furo[2,3-d]pyrimidin-4-yl]-3-(4-fluorophenyl)-1H-pyrazol-1-yl}-2-methylpropan-2-ol]	9.70	6.13	8.09	7.89	–	–	–
CN1CCN(Cc2cccc(-c3cc4c(-c5cn(C6CS(=O)(=O)C6)nc5-c5ccc(F)cc5)ncnc4o3)c2)CC1 [Example 205, 3-[3-(4-fluorophenyl)-4-(6-{3-[(4-methylpiperazin-1-yl)methyl]phenyl}furo[2,3-d]pyrimidin-4-yl)-1H-pyrazol-1-yl]-1λ6-thietane-1,1-dione]	9.96	5.89	7.29	7.30	–	–	–
Cc1nn(C)c(C)c1-c1cc2c(-c3cn(CC(C)(C)O)nc3-c3ccc(F)cc3)ncnc2o1 [Example 252, 1-{3-(4-fluorophenyl)-4-[6-(1,3,5-trimethyl-1H-pyrazol-4-yl)furo[2,3-d]pyrimidin-4-yl]-1H-pyrazol-1-yl}-2-methylpropan-2-ol]	10.05	6.20	8.05	7.66	–	–	–
Cc1cccc(-c2cc3c(-c4cn(C5CS(=O)(=O)C5)nc4-c4ccc(F)cc4)ncnc3o2)n1 [Example 253, 3-{3-(4-fluorophenyl)-4-[6-(6-methylpyridin-2-yl)furo[2,3-d]pyrimidin-4-yl]-1H-pyrazol-1-yl}-16-thietane-1,1-dione]	9.70	–	–	–	5.11	7.29	7.06
CC(=O)N1CC=C(c2nc3c(-c4cn(C5CS(=O)(=O)C5)nc4-c4ccc(F)cc4)ncnc3[nH]2)CC1 [Example 191, 3-{4-[8-(1-acetyl-1,2,3,6-tetrahydropyridin-4-yl)-9H-purin-6-yl]-3-(4-fluorophenyl)-1H-pyrazol-1-yl}-1λ6-thietane-1,1-dione]	9.19	< 4.70	< 4.70	< 4.70	–	–	–
CC1(C)C[C@@H](n2cc(-c3ncnc4oc(-c5ccccc5)cc34)c(-c3ccc(F)cc3)n2)CCO1 (single isomer, unassigned) [Example 226]	8.73	4.99	6.63	6.38	–	–	–
FCCCn1cc(-c2ncnc3oc(-c4ccccc4)cc23)c(-c2ccc(F)cc2)n1 [Example 156, 4-[3-(4-fluorophenyl)-1-(3-fluoropropyl)-1H-pyrazol-4-yl]-6-phenylfuro[2,3-d]pyrimidine]	9.51	5.83	7.73	7.52	–	–	–

Continued by rising pIC50 [1], values first:

pIC50 [1]	pIC50 (Ba/F3_EGFR WT cells; [2])	pIC50 (BaF3_EGFR LR/CS cells; [3])	pIC50 (BaF3_EGFR d19/CS cells; [4])	SMILES	pIC50 (Ba/F3_EGFR WT cells; 72 h)	pIC50 (BaF3_EGFR LR/CS cells; 72 h)	pIC50 (BaF3_EGFR d19/CS cells; 72 h)
8.22	< 4.70	5.60	5.96	O=S1(=O)CC(n2cc(-c3ncnc4oc(C#CC5CCC5)cc34)c(-c3ccc(F)cc3)n2)C1 [Example 206, 3-{4-[6-(cyclobutylethynyl)furo[2,3-d]pyrimidin-4-yl]-3-(4-fluorophenyl)-1H-pyrazol-1-yl}-1λ6-thietane-1,1-dione]	–	–	–
8.48	5.25	5.79	6.04	CC(=O)N1CC(C#Cc2cc3c(-c4cn(C5CS(=O)(=O)C5)nc4-c4ccc(F)cc4)ncnc3o2)C1 [Example 140, 3-[4-{6-[(1-Acetylazetidin-3-yl)ethynyl]furo[2,3-d]pyrimidin-4-yl}-3-(4-fluorophenyl)-1H-pyrazol-1-yl]-16-thietane-1,1-dione]	–	–	–
8.84	5.16	6.59	6.40	CS(=O)(=O)[C@@H]1CC[C@H](n2cc(-c3ncnc4oc(-c5ccccc5)cc34)c(-c3ccc(F)cc3)n2)C1 (racemic) [Example 185, 4-{3-(4-fluorophenyl)-1-[3-(methanesulfonyl)cyclopentyl]-1H-pyrazol-4-yl}-6-phenylfuro[2,3-d]pyrimidine]	–	–	–
9.36	5.87	7.98	7.19	C[C@]1(O)C[C@@H](Cn2cc(-c3ncnc4oc(-c5ccccc5)cc34)c(-c3ccc(F)cc3)n2)C1 [Example 162, (1s,3s)-3-{[3-(4-fluorophenyl)-4-(6-phenylfuro[2,3-d]pyrimidin-4-yl)-1H-pyrazol-1-yl]methyl}-1-methylcyclobutan-1-ol]	–	–	–
9.43	5.92	7.03	7.06	Cc1cc(-c2cc3c(-c4cn(C5CS(=O)(=O)C5)nc4-c4ccc(F)cc4)ncnc3o2)n(C)n1 [Example 243, 3-{4-[6-(1,3-dimethyl-1H-pyrazol-5-yl)furo[2,3-d]pyrimidin-4-yl]-3-(4-fluorophenyl)-1H-pyrazol-1-yl}-16-thietane-1,1-dione]	–	–	–
9.43	7.06	8.17	8.28	C[C@@H]1C[C@H](n2cc(-c3ncnc4oc(-c5ccccc5)cc34)c(-c3ccc(F)cc3)n2)CN1S(C)(=O)=O [Example 212, 4-{3-(4-fluorophenyl)-1-[(3S,5R)-1-(methanesulfonyl)-5-methylpyrrolidin-3-yl]-1H-pyrazol-4-yl}-6-phenylfuro[2,3-d]pyrimidine]	–	–	–
9.46	5.72	7.77	7.48	CC(=O)N1C=C(c2cc3c(-c4cn(CC(C)(C)O)nc4-c4ccc(F)cc4)ncnc3o2)CCC1 [Example 260, 1-[5-{4-[3-(4-fluorophenyl)-1-(2-hydroxy-2-methylpropyl)-1H-pyrazol-4-yl]furo[2,3-d]pyrimidin-6-yl}-3,4-dihydropyridin-1 (2H)-yl]ethan-1-one]	–	–	–
9.60	5.35	6.99	6.99	Cc1ncccc1-c1cc2c(-c3cn(C4CS(=O)(=O)C4)nc3-c3ccc(F)cc3)ncnc2o1 [Example 249, 3-{3-(4-fluorophenyl)-4-[6-(2-methylpyridin-3-yl)furo[2,3-d]pyrimidin-4-yl]-1H-pyrazol-1-yl}-1λ6-thietane-1,1-dione]	–	–	–
9.64	6.87	8.73	8.88	Cn1cnc(-c2cc3c(-c4cn([C@H]5C[C@H](C#N)C5)nc4-c4ccc(F)cc4)ncnc3o2)c1 [Example 270, (1r,3r)-3-{3-(4-fluorophenyl)-4-[6-(1-methyl-1H-imidazol-4-yl)furo[2,3-d]pyrimidin-4-yl]-1H-pyrazol-1-yl}cyclobutane-1-carbonitrile]	–	–	–
9.69	6.00	7.95	7.99	CC(C)(O)Cn1cc(-c2ncnc3oc(-c4cnn5c4OCCC5(C)C)cc23)c(-c2ccc(F)cc2)n1 [Example 284, 1-(4-(6-(7,7-dimethyl-6,7-dihydro-5H-pyrazolo[5,1-b][,3]oxazin-3-yl)furo[2,3-d]pyrimidin-4-yl)-3-(4-fluorophenyl)-1H-pyrazol-1-yl)-2-methylpropan-2-ol]	–	–	–
9.70	5.79	7.18	6.97	CC(=O)N1CC[C@H](n2cc(-c3ncnc4oc(-c5ccccc5)cc34)c(-c3ccc(F)cc3)n2)C1 (single isomer, unassigned) [Example 129]	–	–	–
9.80	6.01	7.90	7.73	Cc1c(-c2cc3c(-c4cn(CC(C)(C)O)nc4-c4ccc(F)cc4)ncnc3o2)cnn1C [Example 258, 1-{4-[6-(1,5-dimethyl-1H-pyrazol-4-yl)furo[2,3-d]pyrimidin-4-yl]-3-(4-fluorophenyl)-1H-pyrazol-1-yl}-2-methylpropan-2-ol]	–	–	–
9.96	6.35	8.52	8.30	Cn1cnc(-c2cc3c(-c4cn(CC(C)(C)O)nc4-c4ccc(F)cc4)ncnc3o2)c1 [Example 254, 1-{3-(4-fluorophenyl)-4-[6-(1-methyl-1H-imidazol-4-yl)furo[2,3-d]pyrimidin-4-yl]-1H-pyrazol-1-yl}-2-methylpropan-2-ol]	–	–	–
